Where two headings read alike, the source gives them in different places.
Target: P-glycoprotein (Pgp) (Homo sapiens, UniProt P08183)
Settings: for conformation change which prevents binding of MM12.10 after UIC2 (efficient in ACT): cells pretreated with modulator/substrate, then UIC2, then FITC-MM12.10, KB-V1 and NIH 3T3 MDR1 cells
Description: The cells were trypsinized as usual, washed twice with PBS (phosphate buffered saline, pH 7,4). 10^6 cells/1 ml PBS (plus 8 mM glucose), pre-incubated for 20 minutes at 37° C. with different drugs, modulators, and without washing the cells, the first (“A”) monoclonal antibody was added to the samples. After a further 30 minutes incubation (at 37° C.) an FITC or 5-sFx conjugated second (“B”) antibody was added to the samples (again without washing the cells), and were incubated at 37° C. for another 30 minutes. In case of the UIC2-shift test the cells were incubated with UIC2 antibody, washed twice, and incubated with goat anti-mouse IgG2a FITC conjugate (F/P=4,3, Sigma) on ice in 100 μl PBS for 45 minutes. The samples washed twice were resuspended in 500 μl PBS, and analyzed in flow cytometer. The antibody concentrations used were: 8 μg/ml MRK16, MC57, MM8.15, MM12.10 and 10 μg/ml UIC2. Daunorubicine (DNR) and calcein accumulation tests: see Goda, K. et al.: Practical guide to physical analysis of cell surface receptors, Ed.: Krasznai, Z. and Mátyus, L., pp. 110-125 (1998); Homolya, L., Holló, Zs., Germann, U. A., Pastan, L, Gottesman, M. M. and Sarkadi, B.: Fluorescent cellular indicators are extruded by the multidrug resistance protein. Journal of Biological Chemistry 268 21493-21496 (1993); Holló, Zs., Homolya, L., Davis, C. W. and Sarkadi, B.: Calcein accumulation as a fluorimetric functional assay of the multidrug trasporter. Biochimica et Biophysica Acta 1191 384-388 199420,21.
The average fluorescence intensities per cell were determined by Becton Dickinson FACScan (Mountain View, Calif.). Dead cells were excluded from the analysis by propidium-iodate staining. The fluorescence signals were plotted on logarithmic scale, the two-level analysis was carried out by BDIS CellQuest and FloWin softwares (SoftFlow Ltd., Pécs, Hungary).
The cells are then treated with the first (“A”) antibody (incubation with or without UIC2, MM8.1 or MC57) for 30 minutes, and the cells are labelled with FITC-MM12.10 (“B”) antibody The curves are flow cytometry histograms from representative measurement each. Continous line: control without “A”; bold line: “A”=UIC2; dotted line: “A”=MM8.15 (a-d) or MC57 (e-f). Binding of the “A” antibodies was verified in two independent experiments, with indirect immunfluorescence.
The ratio of average FITC MM12.10 fluorescence intensities, with and without UIC2 pretreatment give the Rcompetition values (black columns). Cells were pretreated for 20 minutes with reverting agents, and incubated for further 20 minutes with UIC2 antibody, finally the FITC-MM12.10 antibody was used (further 30 minutes incubation). Cells were not washed between the incubation steps. […] UIC2-shift was detected by indirect immunfluorescence; the white columns show the ratio of the average fluorescence intensities detected with and without the reverting treatments (Rshift). On the insert figure the same UIC2-shift data are plotted on magnified scale. The average of 4-6 independent measurements (±SEM) are shown.
ACT tests were carried out on NIH3T3 MDR1 cells, with different antibody combinations. Following UIC2 or MM12.10 (not conjugated with stain) pretreatment the cells are labelled with FITC or 5sFx conjugated MM12.10, UIC2, MRK16 and MM18.15 antibodies. Before adding the antibodies the cells are pretreated with CSA (grey columns) or not (black columns).

Sequence of P-glycoprotein (Pgp) (P08183 whole entry): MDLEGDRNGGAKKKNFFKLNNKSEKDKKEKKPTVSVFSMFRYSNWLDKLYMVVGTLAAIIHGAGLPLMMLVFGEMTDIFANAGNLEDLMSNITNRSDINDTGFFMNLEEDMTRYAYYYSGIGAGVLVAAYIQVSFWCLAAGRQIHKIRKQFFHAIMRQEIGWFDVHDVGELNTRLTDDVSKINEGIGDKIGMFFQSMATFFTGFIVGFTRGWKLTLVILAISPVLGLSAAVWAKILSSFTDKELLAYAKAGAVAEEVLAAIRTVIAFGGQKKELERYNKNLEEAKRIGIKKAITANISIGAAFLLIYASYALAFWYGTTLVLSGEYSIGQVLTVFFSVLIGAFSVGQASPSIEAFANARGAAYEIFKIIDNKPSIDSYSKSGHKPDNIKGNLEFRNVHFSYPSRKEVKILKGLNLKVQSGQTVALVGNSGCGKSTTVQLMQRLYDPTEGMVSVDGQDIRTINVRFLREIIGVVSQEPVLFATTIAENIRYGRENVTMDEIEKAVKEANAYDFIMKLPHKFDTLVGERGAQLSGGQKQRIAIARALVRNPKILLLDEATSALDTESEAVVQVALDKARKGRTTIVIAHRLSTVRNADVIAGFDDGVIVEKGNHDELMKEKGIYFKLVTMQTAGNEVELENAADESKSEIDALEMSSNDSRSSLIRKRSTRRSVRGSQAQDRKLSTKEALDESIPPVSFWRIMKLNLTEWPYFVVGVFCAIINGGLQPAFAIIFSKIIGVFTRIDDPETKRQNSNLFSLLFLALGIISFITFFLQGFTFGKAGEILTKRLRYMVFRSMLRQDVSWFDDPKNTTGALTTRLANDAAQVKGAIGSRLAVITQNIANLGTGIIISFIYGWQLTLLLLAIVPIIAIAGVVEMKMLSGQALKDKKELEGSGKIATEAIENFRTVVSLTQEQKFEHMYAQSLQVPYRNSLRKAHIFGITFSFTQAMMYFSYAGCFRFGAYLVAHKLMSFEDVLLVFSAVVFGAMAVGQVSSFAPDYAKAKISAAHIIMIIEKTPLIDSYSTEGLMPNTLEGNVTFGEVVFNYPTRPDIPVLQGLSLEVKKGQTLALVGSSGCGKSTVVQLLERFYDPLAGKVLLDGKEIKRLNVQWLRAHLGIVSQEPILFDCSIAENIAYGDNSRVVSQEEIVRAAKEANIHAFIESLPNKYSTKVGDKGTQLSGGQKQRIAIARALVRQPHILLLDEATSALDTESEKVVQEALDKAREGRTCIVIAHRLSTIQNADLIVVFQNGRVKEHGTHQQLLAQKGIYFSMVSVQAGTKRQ

Row | Compound | conformation change which prevents binding of MM12.10 after UIC2 (efficient in ACT) | conformation change which prevents binding of MM12.10 after UIC2 (efficient in ACT) (listed as valinomycin) | Rcompetition value in ACT after ATP depletion
1 | C/C=C/C[C@@H](C)C(=O)[C@H]1C(=O)N[C@@H](C(C)C)C(=O)N(C)CC(=O)N(C)[C@@H](CC(C)C)C(=O)N[C@@H](C(C)C)C(=O)N(C)[C@@H](CC(C)C)C(=O)N[C@@H](C)C(=O)N[C@H](C)C(=O)N(C)[C@@H](CC(C)C)C(=O)N(C)[C@@H](CC(C)C)C(=O)N(C)[C@@H](C(C)C)C(=O)N1C [PSC 833] | accomplishes the conformation change | – | –
2 | gramicidin | doesn't | – | –
3 | CC(C)[C@@H]1NC(=O)[C@H](C)OC(=O)[C@@H](C(C)C)NC(=O)[C@@H](C(C)C)OC(=O)[C@H](C(C)C)NC(=O)[C@H](C)OC(=O)[C@@H](C(C)C)NC(=O)[C@@H](C(C)C)OC(=O)[C@H](C(C)C)NC(=O)[C@H](C)OC(=O)[C@@H](C(C)C)NC(=O)[C@@H](C(C)C)OC1=O [valinomycine] | accomplishes the conformation change | efficient | –
4 | CC[C@H]1/C=C/C=C/C[C@@H](C)[C@H](O)[C@@](C)(O)C(=O)[C@@H](C)[C@H](O)[C@@H](C)C(=O)[C@@H](C)[C@H](O)[C@@H](C)/C=C/C(=O)O[C@@H]2[C@H](C)[C@H](CC1)O[C@]1(CC[C@H](C)[C@H](C[C@@H](C)O)O1)[C@H]2C [oligomicin] | – | – | big
